The results in this text go back to ChEMBL document CHEMBL5365492 (J Med Chem, 2023).

Series [1] in a line: Permeability in human Caco-2 cells at 10 uM incubated for 2 hrs by LC-MS analysis. The class given is ADME, cell-based. The note with it: read-out: permeability.
Series [2] in a line: 1,9-decadiene-water partition coefficient, logD of compound at pH 7.4 at 10 uM incubated for 30 mins by LC-MS analysis. The class given is physicochemical.
The nature of series [3]: Permeability of compound at 10 uM incubated for 18 hrs by PAMPA assay. The class given is ADME. The conditions noted are these: read-out: permeability. For orientation: The PAMPA barrier holds no transporters, so it reflects passive diffusion.

Square brackets hold non-standard residues; d marks the D form. Peptide text beside a SMILES is read from it. NMeL = CN[C@@H](CC(C)C)C(=O)O; NMeV = CN[C@H](C(=O)O)C(C)C; Nva = CCC[C@H](N)C(=O)O; Sar = CNCC(=O)O

With `CCC[C@@H]1NC(=O)[C@H]([C@@H](C)O)N(C)C(=O)[C@H](C(C)C)NC(=O)[C@H](CC(C)C)N(C)C(=O)[C@H](CC(C)C)N(C)C(=O)[C@@H](C)NC(=O)[C@H](C)NC(=O)[C@H](CC(C)C)N(C)C(=O)[C@H](C(C)C)NC(=O)[C@H](CC(C)C)N(C)C(=O)CN(C)C1=O`, in series [1], the Papp at 2 h, 10 µM was found to be 8.7 ×10⁻⁶ cm/s. Also, in series [2], the logD hydrocarbon water at 0.5 h, 10 µM worked out at 3.12. Besides, in series [3], the Papp at 18 h, 10 µM stood at 0.8 ×10⁻⁶ cm/s.

In series [2], `NC(=O)N1c2ccccc2C=Cc2ccccc21` [CARBAMAZEPINE] registered a logD hydrocarbon water at 0.5 h, 10 µM of 0.13. Further, in series [3], the Papp at 18 h, 10 µM stood at 9.5 ×10⁻⁶ cm/s.

On to `CC(C)NCC(O)COc1cccc2ccccc12` (configuration not stated) [PROPRANOLOL], for which the Papp at 2 h, 10 µM in series [1] is 32 ×10⁻⁶ cm/s.

In the case of `C/C=C/C[C@@H](C)[C@@H](OC(C)=O)[C@H]1C(=O)N[C@@H](CC)C(=O)N(C)CC(=O)N(C)[C@@H](CC(C)C)C(=O)N[C@@H](C(C)C)C(=O)N(C)[C@@H](CC(C)C)C(=O)N[C@@H](C)C(=O)N[C@H](C)C(=O)N(C)[C@@H](CC(C)C)C(=O)N(C)[C@@H](CC(C)C)C(=O)N(C)[C@@H](C(C)C)C(=O)N1C`, the logD hydrocarbon water at 0.5 h, 10 µM in series [2] was 5.17.

With `CCC[C@@H]1NC(=O)[C@H]([C@@H](C)O)N(C)C(=O)[C@H](CC(C)C)NC(=O)[C@H](CC(C)C)N(C)C(=O)[C@H](CC(C)C)N(C)C(=O)[C@@H](C)NC(=O)[C@H](C)NC(=O)[C@H](CC(C)C)N(C)C(=O)[C@H](C(C)C)NC(=O)[C@H](CC(C)C)N(C)C(=O)CN(C)C1=O`, the Papp at 2 h, 10 µM in series [1] is 2.6 ×10⁻⁶ cm/s. The compound also yielded a logD hydrocarbon water at 0.5 h, 10 µM in series [2] of 2.52. The Papp at 18 h, 10 µM in series [3] was determined as 7.7 ×10⁻⁶ cm/s.

In the case of `CCC[C@@H]1NC(=O)[C@H]([C@@H](C)O)N(C)C(=O)[C@H](C(C)C)N(C)C(=O)CN(CC[N+](CC)(CC)CC)C(=O)[C@H](CC(C)C)N(C)C(=O)[C@@H](C)NC(=O)[C@H](C)NC(=O)[C@H](CC(C)C)N(C)C(=O)[C@H](C(C)C)NC(=O)[C@H](CC(C)C)N(C)C(=O)CN(C)C1=O.O=C([O-])C(F)(F)F`, the Papp at 2 h, 10 µM in series [1] worked out at 0.35 ×10⁻⁶ cm/s. In series [2], this compound returned a logD hydrocarbon water at 0.5 h, 10 µM of -2.44.

For `CCC[C@@H]1NC(=O)[C@H](CC(C)C)N(C)C(=O)[C@H](C(C)C)N(C)C(=O)[C@H](CC(C)C)N(C)C(=O)[C@H](CC(C)C)N(C)C(=O)[C@@H](C)NC(=O)[C@H](C)NC(=O)[C@H](CC(C)C)N(C)C(=O)[C@H](C(C)C)NC(=O)[C@H](CC(C)C)N(C)C(=O)CN(C)C1=O` (cyclo(A[dA][NMeL][NMeL][NMeV][NMeL][Nva][Sar][NMeL]V[NMeL])), in series [1], the Papp at 2 h, 10 µM turned out to be 4.1 ×10⁻⁶ cm/s. The same compound returned a logD hydrocarbon water at 0.5 h, 10 µM in series [2] of 4.93. The Papp at 18 h, 10 µM in series [3] was 0.6 ×10⁻⁶ cm/s.

On to `CCCC[C@@H]1NC(=O)[C@H](CC(C)C)N(C)C(=O)[C@H](CC(C)C)N(C)C(=O)[C@@H](C)NC(=O)[C@H](C)NC(=O)[C@H](CC(C)C)N(C)C(=O)[C@H](C(C)C)NC(=O)[C@H](CC(C)C)N(C)C(=O)CN(C)C(=O)[C@H](CCC)NC(=O)[C@H]([C@@H](C)O)N(C)C1=O`, for which, in series [1], the Papp at 2 h, 10 µM amounted to 3 ×10⁻⁶ cm/s. In series [2], this compound registered a logD hydrocarbon water at 0.5 h, 10 µM of 2.59. The Papp at 18 h, 10 µM in series [3] was found to be 5.2 ×10⁻⁶ cm/s.

For the compound `CCC[C@@H]1NC(=O)[C@H]([C@@H](C)O)N(C)C(=O)[C@H]([C@@H](C)CC)NC(=O)[C@H](CC(C)C)N(C)C(=O)[C@H](CC(C)C)N(C)C(=O)[C@@H](C)NC(=O)[C@H](C)NC(=O)[C@H](CC(C)C)N(C)C(=O)[C@H](C(C)C)NC(=O)[C@H](CC(C)C)N(C)C(=O)CN(C)C1=O`, the Papp at 2 h, 10 µM in series [1] came to 2.2 ×10⁻⁶ cm/s. Besides, the logD hydrocarbon water at 0.5 h, 10 µM in series [2] was 2.58. For the same compound, in series [3], the Papp at 18 h, 10 µM was found to be 7.5 ×10⁻⁶ cm/s.

For the compound `CCC[C@@H]1NC(=O)[C@H](CC)N(C)C(=O)[C@H](C(C)C)N(C)C(=O)[C@H](CC(C)C)N(C)C(=O)[C@H](CC(C)C)N(C)C(=O)[C@@H](C)NC(=O)[C@H](C)NC(=O)[C@H](CC(C)C)N(C)C(=O)[C@H](C(C)C)NC(=O)[C@H](CC(C)C)N(C)C(=O)CN(C)C1=O`, the Papp at 2 h, 10 µM in series [1] stood at 6.4 ×10⁻⁶ cm/s. The compound further registered a logD hydrocarbon water at 0.5 h, 10 µM in series [2] of 3.58. The Papp at 18 h, 10 µM in series [3] is 2 ×10⁻⁶ cm/s.

For the compound `CCC[C@@H]1NC(=O)[C@H]([C@H](O)C(C)C)N(C)C(=O)[C@H](C(C)C)N(C)C(=O)[C@H](CC(C)C)N(C)C(=O)[C@H](CC(C)C)N(C)C(=O)[C@@H](C)NC(=O)[C@H](C)NC(=O)[C@H](CC(C)C)N(C)C(=O)[C@H](C(C)C)NC(=O)[C@H](CC(C)C)N(C)C(=O)CN(C)C1=O`, the Papp at 2 h, 10 µM in series [1] was 18.6 ×10⁻⁶ cm/s. The same compound yielded a logD hydrocarbon water at 0.5 h, 10 µM in series [2] of 3.35. In series [3], the Papp at 18 h, 10 µM was determined as 9.2 ×10⁻⁶ cm/s.

Consider `CCC[C@@H]1NC(=O)[C@H]([C@@H](C)O)N(C)C(=O)[C@H](C)NC(=O)[C@H](CC(C)C)N(C)C(=O)[C@H](CC(C)C)N(C)C(=O)[C@@H](C)NC(=O)[C@H](C)NC(=O)[C@H](CC(C)C)N(C)C(=O)[C@H](C(C)C)NC(=O)[C@H](CC(C)C)N(C)C(=O)CN(C)C1=O`, for which the Papp at 2 h, 10 µM in series [1] amounted to 0.3 ×10⁻⁶ cm/s. The compound further displayed a logD hydrocarbon water at 0.5 h, 10 µM in series [2] of 1.45. Besides, the Papp at 18 h, 10 µM in series [3] came out at 0.3 ×10⁻⁶ cm/s.

Take `CCC[C@@H]1NC(=O)[C@H]([C@@H](C)O)N(C)C(=O)[C@H](C(C)C)N(C)C(=O)CN(CCN(C(C)C)C(C)C)C(=O)[C@H](CC(C)C)N(C)C(=O)[C@@H](C)NC(=O)[C@H](C)NC(=O)[C@H](CC(C)C)N(C)C(=O)[C@H](C(C)C)NC(=O)[C@H](CC(C)C)N(C)C(=O)CN(C)C1=O.O=C(O)C(F)(F)F`: in series [1], the Papp at 2 h, 10 µM is 0.07 ×10⁻⁶ cm/s. This compound also registered a logD hydrocarbon water at 0.5 h, 10 µM in series [2] of 0.13.

For the compound `CCC[C@@H]1NC(=O)[C@H]([C@H](O)C(C)C)N(C)C(=O)[C@H](C(C)C)NC(=O)[C@H](CC(C)C)N(C)C(=O)[C@H](CC(C)C)N(C)C(=O)[C@@H](C)NC(=O)[C@H](C)NC(=O)[C@H](CC(C)C)N(C)C(=O)[C@H](C(C)C)NC(=O)[C@H](CC(C)C)N(C)C(=O)CN(C)C1=O`, the Papp at 2 h, 10 µM in series [1] turned out to be 6.8 ×10⁻⁶ cm/s. For the same compound, the logD hydrocarbon water at 0.5 h, 10 µM in series [2] stood at 4.6.

With `CCC[C@@H]1NC(=O)[C@H]([C@@H](C)O)N(C)C(=O)[C@H](C(C)C)N(C)C(=O)[C@H](CC(C)C)N(C)C(=O)[C@H](CC(C)C)N(C)C(=O)[C@@H](C)NC(=O)[C@H](C)NC(=O)[C@H](CC(C)C)N(C)C(=O)[C@H](C(C)C)NC(=O)[C@H](CC(C)C)N(C)C(=O)CN(C)C1=O`, the Papp at 2 h, 10 µM in series [1] was 3 ×10⁻⁶ cm/s. Moreover, in series [2], the logD hydrocarbon water at 0.5 h, 10 µM stood at 2.12. In series [3], the Papp at 18 h, 10 µM was 6.6 ×10⁻⁶ cm/s.
